Measurements taken from PMC6079455, “Discovery of Novel Caeridins from the Skin Secretion of the Australian White's Tree Frog, Litoria caerulea” (International Journal of Genomics, 2018).
Ends that are not written are not given here.

Experiments:
S. aureus = assay: Membrane permeability on S. aureus (SYTOX Green); type: cell-based, Staphylococcus aureus; conditions: 2 h; for membrane-permeabilising activity on S. aureus: up to 512 μM
Experimental: The cell membrane permeability of S. aureus was tested with SYTOX Green Nucleic Acid Stain (Life Technologies, Carlsbad, CA, USA). The log-phase S. aureus was pelleted and suspended in 5% TSB in 0.85% NaCl solution to achieve 1 × 10^8 CFU/ml cells which was then treated with peptide solutions at 37°C for 2 h. The maximum membrane-compromised S. aureus was produced by 70% isopropanol treatment. Subsequently, cells were mixed with 5 μM SYTOX Green stain and incubated in the dark for 10 min. The fluorescence was measured in a 37°C Synergy HT plate reader (Biolise BioTek ELx808, Winooski, VT, USA) at excitation and emission wavelengths of 480 nm and 528 nm, respectively. The membrane permeability was calculated as (1) Membrane permeability%=F−F0/F1−F0×100%, where F represents the processed fluorescence intensity with peptide treatments, F0 represents the processed fluorescence intensity of untreated S. aureus, and F1 represents the processed fluorescence intensity in the maximum membrane-compromised S. aureus (70% isopropanol-treated). The fluorescence intensities of background were subtracted prior to calculation.

[1] = test system: human microvascular endothelial cell line HMEC-1; assay: Membrane permeabilisation of HMEC-1 (LDH release); type: cell-based; conditions: 24 h; for cytotoxicity to HMEC-1 cells: 100 μM, LDH release; for membrane lysis (LDH release) of HMEC-1: 10^−7 M to 10^−4 M
Experimental: The membrane permeabilisation of the human microvascular endothelial cell line, HMEC-1, was evaluated using the Pierce LDH Cytotoxicity Assay Kit (Thermo Fisher Scientific, San Francisco, CA, USA). HMEC-1 cells were cultured in MCDB-131 medium (Life Technology, Paisley, UK) with 10% FBS, 10 ng/ml epidermal growth factor (EGF) (Life Technology, Paisley, UK), 10 mM L-glutamine (Life Technology, Paisley, UK), and 1% penicillin-streptomycin (Sigma-Aldrich, St. Louise, MO, USA), at 37°C under 5% CO2. Cells were seeded in a 96-well plate at 5000 cells per well and cultured overnight to 80% confluency. Then, the cells were treated with different peptide solutions of gradient concentrations from 10^−7 M to 10^−4 M for 24 h at 37°C, 5% CO2, and H2O-treated cells were made as the spontaneous LDH release control. Lysis buffer was added to cells and incubated for 45 min at 37°C, 5% CO2, to produce the lysis buffer-treated cells which were referred to as maximum LDH release control. Then 50 μl of each sample supernatant was transferred to a 96-well flat-bottom plate in triplicate wells, to which 50 μl of reaction mixture was added, incubated, and protected from light at room temperature for 30 min. After addition of 50 μl Stop Solution to each sample well and removal of bubbles present in sample wells, the absorbance at 490 nm and 680 nm was measured. The absorbance values at 680 nm were subtracted from the absorbance values at 490 nm before calculation of the level of LDH release (cytotoxicity). The level of LDH release was calculated as (2) LDH release %=L−L0/L1−L0×100%, where L refers to sample-treated LDH activity, L0 to spontaneous (H2O-treated) LDH activity, and L1 to maximum (lysis buffer-treated) LDH activity.
Data analysis was performed using one-way analysis of variance followed by Dunnett's multiple comparison tests with maximum LDH release control in GraphPad Prism (Version 6.0; GraphPad Software Inc., San Diego, CA, USA).

horse erythrocytes = assay: Haemolytic test; type: cell-based; conditions: tested concentrations, horse red blood cells, 37°C, 2 h
Experimental: The haemolysis of Caeridins was tested on prepared defrinated horse red blood cells (TCS Biosciences Ltd., Buckingham, UK) by incubating equal volumes of peptide solutions with erythrocyte suspensions at 37°C for 2 H. Maximum haemolysis control was included by incubating equal volumes of 1% Triton X-100 (Sigma-Aldrich, St. Louis, MO, USA) with erythrocyte suspensions. Lysis of erythrocytes was detected by the measurement of supernatant absorbance at a wavelength of 550 nm using a Synergy HT plate reader (Biolise BioTek ELx808, Winooski, VT, USA). The level of haemolysis was as calculated as (3) Haemolysis %=A−A0/A1−A0×100%, where A represents the absorbance with peptide treatments, A0 represents the average absorbance in untreated erythrocytes, and A1 represents the average absorbance in the maximum haemolysis control (1% Triton X-100-treated).

C. albicans NCYC1467 = assay: Antimicrobial test (broth microdilution); type: cell-based, Candida albicans; conditions: for MIC: MHB, 5 × 10^5 CFU/ml, 37°C overnight, 550 nm
Experimental: (§1) The antimicrobial activities were tested by the broth microdilution method and evaluated by the determination of MIC values against different tested microorganisms, the Gram-positive bacteria, S. aureus (NCTC 10788), E. faecalis (NCTC12697), and MRSA (NCTC 12493); the Gram-negative bacterium, E. coli (NCTC 10418); and the yeast, C. albicans (NCYC 1467). The microorganisms were cultured to their log phase in MHB and diluted to 5 × 10^5 CFU/ml then subsequently treated with peptide solutions of gradient concentrations. After incubation at 37°C overnight, the growth of microorganisms was detected at a wavelength of 550 nm using a Synergy HT plate reader (Biolise BioTek ELx808, Winooski, VT, USA). The MICs were determined as the lowest concentration of peptide where […].

MRSA NCTC12493 = assay: Antimicrobial test (broth microdilution); type: cell-based, methicillin-resistant S. aureus; conditions: for MIC: MHB, 5 × 10^5 CFU/ml, 37°C overnight, 550 nm
Experimental: as §1

E. faecalis NCTC12697 = assay: Antimicrobial test (broth microdilution); type: cell-based, Enterococcus faecalis; conditions: for MIC: MHB, 5 × 10^5 CFU/ml, 37°C overnight, 550 nm
Experimental: as §1

E. coli = assay: Membrane permeability on E. coli (ONPG / β-galactosidase); type: cell-based, Escherichia coli; conditions: ONPG hydrolysis, absorbance 420 nm, 0-30 min, 37°C
Experimental: The membrane permeabilsation of E.coli was determined by measuring the release of β-galactosidase activity from E. coli into the culture medium with ONPG as the substrate. The log-phase E. coli was grown in MHB medium containing 2% lactose at 37°C, and the cells were pelleted. The cell pellets were suspended in 10 mM PBS (pH 7.4) containing 1.5 mM ONPG and diluted to 1 × 10^8 CFU/ml. Aliquots of cells were incubated with different concentrations of peptides at 37°C. Permeabilisation was measured at 420 nm every 2 min from 0 to 30 min, which reflects ONPG influx into the cells working as an indicator of the permeability of the tested peptides.

[2] = test system: rat urinary bladder smooth muscle; assay: Rat urinary bladder smooth muscle test; conditions: organ bath, 37°C, n = 5
Experimental: (§2) Female Wistar rats (250–300 g) were euthanized by CO2 asphyxiation followed by cervical dislocation under appropriate Home Office (UK) animal licenses. Full urinary bladder and ileum were carefully removed from the abdomen, then placed in cold Kreb's solution (118 mM NaCl, 4.7 mM KCl, 25 mM NaHCO3, 1.15 mM NaH2PO4, 2.5 mM CaCl2, 1.1 mM MgCl2, and 5.6 mM glucose), equilibrated with a carbogen mixture (95% O2, 5% CO2). The prepared smooth muscles linked with transducers were placed in 2 ml capacity organ baths with Kreb's solution flowing through at 2 ml/min and maintained at 37°C with constant bubbling of carbogen gas mixture (95% O2, […]) and equilibrated for 1 h prior to analysis. Then the viability of these smooth muscle preparations was tested by 60 mM KCl. Caeridins were tested at sequential molar concentrations in the range from 10^−6 M to 10^−11 M. Dose-response curves were depicted for each Caeridin on individual smooth muscle preparations (n = 5). Changes in tension of the smooth muscle preparations were detected by pressure transducers connected to a PowerLab System (ADInstruments Pty Ltd.). Data were recorded and calculated to obtain the means of responses and standard error of means (SEM). The dose-response curve of each Caeridin was established using best-fit algorithms through the data analysis package provided by GraphPad Prism (Version 6.0; GraphPad Software Inc., San Diego, CA, USA), and the comparative EC50 value for each peptide was depicted.

E. coli NCTC10418 = assay: Antimicrobial test (broth microdilution); type: cell-based, Escherichia coli; conditions: for MIC: MHB, 5 × 10^5 CFU/ml, 37°C overnight, 550 nm
Experimental: as §1

S. aureus NCTC10788 = assay: Antimicrobial test (broth microdilution); type: cell-based, Staphylococcus aureus; conditions: for MIC: MHB, 5 × 10^5 CFU/ml, 37°C overnight, 550 nm
Experimental: as §1

rat ileum smooth muscle = assay: Rat ileum smooth muscle test; conditions: organ bath, 37°C, n = 5
Experimental: as §2

Compound | cytotoxicity to HMEC-1 cells [1] | haemolytic activity (horse erythrocytes) | MFC (C. albicans NCYC1467) [µM] | MBC (MRSA NCTC12493) [µM] | MIC (MRSA NCTC12493) [µM] | MIC (E. faecalis NCTC12697) [µM] | membrane-permeabilising activity on S. aureus (S. aureus) | membrane lysis (LDH release) of HMEC-1 ([1]; relative to lysis buffer) | MIC (C. albicans NCYC1467) [µM] | MBC (E. coli NCTC10418) [µM] | MIC (E. coli NCTC10418) [µM] | MBC (E. faecalis NCTC12697) [µM] | membrane permeabilisation of E. coli at maximum tested concentration (E. coli) | MBC (S. aureus NCTC10788) [µM] | MIC (S. aureus NCTC10788) [µM] | other results
CC[C@H](C)[C@H](NC(=O)CN)C(=O)NCC(=O)N[C@@H](C)C(=O)N[C@H](C(=O)N[C@@H](CC(C)C)C(=O)N[C@@H](CCCCN)C(=O)N[C@H](C(=O)N[C@@H](CC(C)C)C(=O)N[C@H](C(=O)N[C@H](C(=O)NCC(=O)N[C@@H](CC(C)C)C(=O)N1CCC[C@H]1C(=O)N[C@@H](C)C(=O)N[C@@H](CC(C)C)C(=O)N[C@H](C(=O)N[C@@H](CO)C(=O)N[C@@H](Cc1c[nH]c2ccccc12)C(=O)N[C@H](C(=O)N[C@@H](CCCCN)C(=O)N[C@@H](CCCNC(=N)N)C(=O)N[C@@H](CCCCN)C(=O)N[C@@H](CCCNC(=N)N)C(=O)N[C@@H](CCC(N)=O)C(=O)N[C@@H](CCC(N)=O)C(N)=O)[C@@H](C)CC)[C@@H](C)CC)[C@@H](C)O)[C@@H](C)O)C(C)C)C(C)C [Melittin, reference compound] | significant cytotoxicity | eminent haemolysis from 1 μM | 8 | 4 | 2 | 2 |  |  |  |  |  |  |  |  |  | membrane permeability of S. aureus at MBC (S. aureus; peptide at its MBC, 37°C, 1 × 10^8 CFU/ml, relative to 70% isopropanol): 100%; membrane permeability of S. aureus at MIC (S. aureus; peptide at its MIC, 37°C, 1 × 10^8 CFU/ml, relative to 70% isopropanol): approximately 50%; LDH release from HMEC-1 ([1]; 0.1 μM, relative to lysis buffer): approximately 10%; membrane permeabilisation of E. coli at MIC and MBC (E. coli; 1 × 10^8 CFU/ml, PBS pH 7.4): higher absorbance at 420 nm
GLLDGLLGTLGL-NH2 [Caeridin-1] | weak cytotoxicity | weak haemolytic activities | > 512 | > 512 | > 512 | > 512 | barely showed membrane-permeabilising activity | lower than 5% | > 512 | > 512 | > 512 | > 512 | failed to induce membrane permeabilisation | > 512 | > 512 | maximum contraction effect on bladder smooth muscle preparations [2]: 0.3 g; EC50 ([2]; Kreb's solution, 10^−11 to 10^−6 M, read-out: EC50 inducing rat bladder smooth muscle contractions): 5.6 nM
RPPGFSPFR [Bradykinin, reference compound] [listing 1 of 2 here] | weak cytotoxicity | weak haemolytic activities |  |  |  |  |  | lower than 5% |  |  |  |  |  |  |  | 
N2H-GLLDSLLGGLGL-CONH2 [S5-Caeridin-1, novel Caeridin peptide from Litoria caerulea skin secretion, synthetic replicate, C-terminally amidated] | weak cytotoxicity | weak haemolytic activities | > 512 | > 512 | > 512 | > 512 | barely showed membrane-permeabilising activity | lower than 5% | > 512 | > 512 | > 512 | > 512 | failed to induce membrane permeabilisation | > 512 | > 512 | maximum relaxant effect on ileum smooth muscle preparations (rat ileum smooth muscle): 0.2 g; EC50 (rat ileum smooth muscle; Kreb's solution, 10^−11 to 10^−6 M, read-out: EC50 causing rat ileum smooth muscle relaxations): 9.5 nM
RPPGFSPFR [Bradykinin, reference compound] [listing 2 of 2 here] |  |  | > 512 | > 512 | > 512 | > 512 | barely showed membrane-permeabilising activity |  | > 512 | > 512 | > 512 | > 512 | failed to induce membrane permeabilisation | > 512 | > 512 | 
